Holding throughout (format): cell-based, Human
Assay [1] concerns HeLa cells in which ATG7 (autophagy-related gene) was knocked out (ATG7 KO). Description: Cell growth inhibitory effect (Cell Counting Kit-8), HeLa ATG7 KO. To be noted: 24 hours. Here is the method:
The results are shown in FIGS. 8 (ATG7 WT) and 9 (ATG7 KO).
FIGS. 20 and 21 show the results.
In FIGS. 20 and 21, HW represents DMEM (produced hydrogen water medium) containing produced hydrogen water with a dissolved hydrogen concentration of 0 ppm to 4 ppm, and HW + DOX represents the DMEM (produced hydrogen water medium) to which 0.5 µM doxorubicin was added.
The results are shown in FIGS. 26 (ATG7 WT) and 27 (ATG7 KO).

The subject of assay [2] is HeLa cells in which ATG7 was knocked out (ATG7 KO). Briefly: Apoptosis induction (Cell Death Detection […]), HeLa ATG7 KO. To be noted: doxorubicin 1 or 2 µM, 24 hours; ATG7 KO compared with ATG7 WT (FIG. 7).
Procedure: Apoptosis induction was assessed using Cell Death Detection [sequence] (Roche Diagnostics, Basel, Switzerland) according to the manual. HeLa cells (ATG7 WT) or HeLa cells in which ATG7 was knocked out (ATG7 KO) were seeded into a 12-well plate at 1.0 × 10^5 cells/well and cultured (precultured) in DMEM under the conditions of 37°C and 5% CO2 for 24 hours. After the preculture, the medium was exchanged with DMEM supplemented with an anticancer agent containing doxorubicin at a predetermined concentration (1 or 2 µM), and the cells were cultured for 24 hours. The cells were then lysed with a lysis buffer, and the lysate was added to each well of the ELISA plate, incubated with an immunological reagent buffer containing anti-histone biotin and anti-DNA POD for 2 hours, and washed with an incubation buffer. Then, the resultant was reacted with 100 µL of an ABTS substrate buffer, and the absorbance was measured at 405 nm and 490 nm.
Apoptosis induction was assessed using Cell Death Detection [sequence] (Roche Diagnostics, Basel, Switzerland) according to the manual. […] Then, the resultant was reacted with 100 µL of an ABTS substrate buffer, and the absorbance was measured at 405 nm and 490 nm.
For another assay, the system named is Caco-2 cells. Description: Cell growth inhibitory effect (Cell Counting Kit-8), Caco-2. The note with it: doxorubicin 1, 2, or 4 µM in serum-free medium (autophagy activating conditions), 24 hours (FIG. 12). Here is the method: FIGS. 12 to 15 show the results.
In FIG. 12, DOX + serum free represents DMEM with no serum (serum-free medium) to which doxorubicin was added at a predetermined concentration (1, 2, or 4 µM), DOX represents serum-containing DMEM with doxorubicin added at a predetermined concentration, and DOX + Baf. represents a medium (Baf. A1-containing medium) containing 200 nM Bafilomycin A1 (Baf. A1) dissolved in serum-containing DMEM, to which doxorubicin was added at the predetermined concentration.
In FIG. 15, FW (Medium + Baf. A1) represents a medium (Baf. A1-containing filtered-water medium) containing 200 nM Baf.

The subject of assay [3] is HeLa cells expressing a GFP-LC3-RFP-LC3ΔG probe. Briefly: Autophagic activity based on GFP/RFP ratio (flow cytometry), HeLa. Here is the method: Then, the cells were detached and suspended, and the fluorescence intensities of GFP and RFP were analyzed by flow cytometry. The autophagic activity was quantitatively analyzed by determining the GFP/RFP ratio.
A1-containing filtered-water medium) containing 200 nM Baf.
The GFP-LC3-RFP-LC3ΔG probe (or a GFP-LC3-RFP probe described later) is described in, for example, the following paper. The GFP-LC3-RFP-LC3ΔG probe (or GFP-LC3-RFP probe) is cleaved by ATG4, and the same number of GFP-LC3 and RFP-LC3ΔG (or RFP) are produced in the cytoplasm. GFP-LC3 is localized in the autophagosomes, and then quenched and degraded in the autolysosomes. RFP-LC3ΔG (or RFP) remains in the cytoplasm and serves as an internal control reflecting the amount of GFP-LC3. The GFP/RFP ratio is obtained by quantifying the cumulative amount of degradation of GFP-LC3 by autophagy. A decrease in the GFP/RFP ratio indicates autophagy activation. An increase in the GFP/RFP ratio indicates autophagy inhibition. […]
(§1) Then, the cells were detached and suspended in the same manner as described in the section (2-3), and the fluorescence intensities of GFP and RFP were analyzed by flow cytometry. The autophagic activity was quantitatively analyzed by determining the GFP/RFP ratio.
(In flow cytometry, cells or beads pass a laser one at a time.)

Assay [4] deals with HCT116 cells expressing the GFP-LC3-RFP probe. Description: Autophagic activity based on GFP/RFP ratio (flow cytometry), HCT116. To be noted: fluorouracil 1 or 10 µM, 24 hours (FIG. 25). Here is the method: as §1

This note sets out measurements from patent EP4806443A1, “ANTICANCER AGENT KIT” (Nihon Trim Co., Ltd., priority 2023, dated 2025).

Molecules are shown by their SMILES.

With `COc1cccc2c1C(=O)c1c(O)c3c(c(O)c1C2=O)C[C@@](O)(C(=O)CO)C[C@@H]3O[C@H]1C[C@H](N)[C@H](O)[C@H](C)O1` [doxorubicin], in assay [1] (doxorubicin 1, 2, or 4 µM, ATG7 KO compared with ATG7 WT (FIG. 6)), the “cell growth inhibitory effect” value is recorded as “enhanced”. In addition, the apoptosis induction result in assay [2] is recorded as “enhanced”. Moreover, the “cell growth inhibitory effect of doxorubicin” value in the assay with Caco-2 cells was “rather reduced”. Moreover, the GFP/RFP ratio result in assay [3] (doxorubicin 1, 2, or 4 µM, 4 hours, a decrease indicates autophagy activation (FIG. 5)) is listed as “decreased as the doxorubicin concentration increased”.
`CC(=O)O[C@H]1C(=O)[C@@]2(C)[C@H]([C@H](OC(=O)c3ccccc3)[C@]3(O)C[C@H](OC(=O)[C@H](O)[C@@H](NC(=O)c4ccccc4)c4ccccc4)C(C)=C1C3(C)C)[C@]1(OC(C)=O)CO[C@@H]1C[C@@H]2O` [paclitaxel]: the “anticancer effect (cell growth inhibitory effect)” value in assay [1] (paclitaxel 1, 10, or 50 nM, ATG7 KO compared with ATG7 WT (FIG. 24)) is “enhanced”. Further, in assay [3] (paclitaxel 1, 5, or 10 nM, 24 hours (FIG. 23)), the GFP/RFP ratio entry is “decreased as the paclitaxel concentration increased”.
Take `O=c1[nH]cc(F)c(=O)[nH]1` [fluorouracil]: the GFP/RFP ratio entry in assay [4] is “decreased as the fluorouracil concentration increased”.
